Biological target: Potassium voltage-gated channel subfamily H member 2 (Homo sapiens, UniProt Q12809)
Assay: hERG Qpatch Assay
Protocol: hERG currents were recorded using the Qpatch automated patch clamp systems (Sophion Bioscience Inc., North Brunswick, NJ) in the whole (single) cell configuration. hERG expressing CHO-K1 cells were harvested with Detachin (Genlantis) and stored in the modified serum-free SFM-2 media (Life Technologies) at room temperature. The extracellular solution contained (in mM) NaCl (145), KCl (4), MgCl2 (1), CaCl2 (2), and HEPES (10), pH 7.4, with NaOH. The intracellular solution contained KCl (135), MgCl2 (1.75), CaCl2 (5.4), EGTA (10), K2-ATP (4), and HEPES (10), pH 7.2, with KOH. After whole cell configuration was achieved, the cell was held at +-90 mV, and a 0.1 s pulse to +-50 mV was delivered to measure the leaking current, which was subtracted from the tail current online. Then the cell was depolarized to +20 mV for 4 s (prepulse), followed by a 4 s test pulse to +-50 mV to reveal the hERG tail current. To monitor changes in the current amplitude, this voltage protocol was repeatedly applied every 20 s. Test compounds were first diluted in DMSO for six dose-response experiments and then dissolved in the extracellular solution using Freedom EVO liquid handling robotic system (Tecan, M nnedorf, Switzerland). The final DMSO concentration in samples was 0.3% v/v. Amitriptyline (Sigma) was tested as a positive control.

Chain of Potassium voltage-gated channel subfamily H member 2 (Q12809 whole entry): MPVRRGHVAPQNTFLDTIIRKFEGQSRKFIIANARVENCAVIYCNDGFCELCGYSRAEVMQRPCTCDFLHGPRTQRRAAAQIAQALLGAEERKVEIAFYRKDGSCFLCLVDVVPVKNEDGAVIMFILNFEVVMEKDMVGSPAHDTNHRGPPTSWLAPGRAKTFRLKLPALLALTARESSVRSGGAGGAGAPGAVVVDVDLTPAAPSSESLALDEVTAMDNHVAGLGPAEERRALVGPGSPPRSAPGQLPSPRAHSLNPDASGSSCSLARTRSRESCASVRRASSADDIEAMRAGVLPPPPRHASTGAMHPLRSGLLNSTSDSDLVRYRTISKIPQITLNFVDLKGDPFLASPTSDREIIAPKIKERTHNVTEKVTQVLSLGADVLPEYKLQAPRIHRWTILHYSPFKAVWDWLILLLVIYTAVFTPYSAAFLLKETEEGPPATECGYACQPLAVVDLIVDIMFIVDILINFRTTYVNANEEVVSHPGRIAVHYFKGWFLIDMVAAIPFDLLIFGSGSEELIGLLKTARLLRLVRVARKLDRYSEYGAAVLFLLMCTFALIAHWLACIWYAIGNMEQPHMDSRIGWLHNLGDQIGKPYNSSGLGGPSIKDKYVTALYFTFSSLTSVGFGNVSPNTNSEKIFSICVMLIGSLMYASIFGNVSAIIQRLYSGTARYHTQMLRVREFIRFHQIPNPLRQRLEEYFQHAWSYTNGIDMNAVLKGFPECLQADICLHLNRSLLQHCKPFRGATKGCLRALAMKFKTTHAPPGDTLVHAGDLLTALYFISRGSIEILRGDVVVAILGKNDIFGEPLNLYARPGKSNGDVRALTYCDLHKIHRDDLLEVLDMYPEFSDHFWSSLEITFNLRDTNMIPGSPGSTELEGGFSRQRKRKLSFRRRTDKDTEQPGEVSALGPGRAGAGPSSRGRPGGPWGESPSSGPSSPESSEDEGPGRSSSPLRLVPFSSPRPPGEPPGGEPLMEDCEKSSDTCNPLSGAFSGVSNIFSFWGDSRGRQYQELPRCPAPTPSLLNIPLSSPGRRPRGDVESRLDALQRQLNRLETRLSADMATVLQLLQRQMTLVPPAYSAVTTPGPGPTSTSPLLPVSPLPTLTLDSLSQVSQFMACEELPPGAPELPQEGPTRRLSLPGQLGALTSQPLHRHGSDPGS

Row | Compound | IC50 [µM]
1 | O=C1Nc2c(F)cc([C@@H](O)CN3C[C@H]4C[C@H](Oc5ccccc5)C[C@@]4(O)C3)cc2CO1 [US20240208953, Example 28A] | 2.4
2 | O=C1CCc2cc([C@H](O)CN3C[C@H]4C[C@H](Oc5ccccc5F)C[C@@]4(O)C3)cc(F)c2N1 [US20240208953, Example 29B] | 12.5

— BindingDB's records for patent US20240208953 (Novartis, 2024)
